Results on three molecules are retold here after patent US10130608B2, “Methods of treating or preventing multiple sclerosis” (Toray Industries, Inc., priority 2014, dated 2018).

In general, inhibition refers to the percentage by which the read-out fell short of the control.

For experiment [1], the system named is MOG-induced mouse experimental autoimmune encephalomyelitis model. Briefly: MOG-induced mouse experimental autoimmune encephalomyelitis model, 30 mg/kg. It is filed as in vivo. The conditions noted are these: C57BL/6J mouse, MOG 35-55; 30 mg/kg orally twice daily for 16 days from three days before inoculation; scored 13 days after inoculation. As to the method:
The action of the cyclohexane derivative (I) or the pharmaceutically acceptable salt thereof against an increase in the neurological symptom score in a MOG-induced mouse experimental autoimmune encephalomyelitis model was evaluated. The mouse experimental autoimmune encephalomyelitis model was prepared according to the method described in Journal of Neuroscience Research, 2006, Vol. 84, pp. 1225-1234 with partial modification. A MOG 35-55 administration solution, which was prepared by mixing equal volumes of a PBS solution containing a partially synthesized peptide of MOG (MOG 35-55; CS Bio Company Inc.) whose concentration was adjusted to 4 mg/mL and Freund's complete adjuvant, was intracutaneously inoculated to both lateral regions of each C57BL/6J mouse (male, 7-weeks old) (Charles River Laboratories Japan) in a total amount of 0.1 mL (0.05 mL per side). Further, on the day of inoculation of the MOG 35-55 administration solution, and two days thereafter, 200 μL of pertussis toxin (Sigma) whose concentration was adjusted to 1 μg/mL was intraperitoneally administered to each mouse. From three days before inoculation of the MOG 35-55 administration solution, Compound 3 was orally administered to mice twice daily at a dose of 30 mg/kg for 16 successive days. Compound 3 was used as a suspension in 0.5% methylcellulose solution. The group in which Compound 3 was administered to mice was provided as the Compound 3 administration group. To provide a vehicle administration group, 0.5% methylcellulose solution was administered in the same manner. Thirteen days after inoculation of the MOG 35-55 administration solution, the neurological symptom score was scored (0: normal, 1: limp tail or hind limb weakness, 2: limp tail and hind limb weakness, 3: partial hind limb paralysis, 4: complete hind limb paralysis, 5: moribund state). […] Comparative Control Compound 1 and Comparative Control Compound 2 were similarly evaluated. […] Thirteen days after inoculation of the MOG 35-55 administration solution, the neurological symptom score was scored.

Experiment [2] shares this test system. Briefly: MOG-induced mouse experimental autoimmune encephalomyelitis model, 3 mg/kg and 10 mg/kg. It is filed as in vivo. The conditions noted are these: C57BL/6J mouse, MOG 35-55, scored 14 days after inoculation. As to the method:
Action of the cyclohexane derivative (I) or the pharmaceutically acceptable salt thereof against an increase in the neurological symptom score in a MOG-induced mouse experimental autoimmune encephalomyelitis model was evaluated. A MOG 35-55 administration solution, which was prepared by mixing equal volumes of a PBS solution containing a partially synthesized peptide of MOG (MOG 35-55; CS Bio Company Inc.) whose concentration was adjusted to 4 mg/mL and Freund's complete adjuvant, was intracutaneously inoculated to both lateral regions of each C57BL/6J mouse (male, 10-weeks old) (Charles River Laboratories Japan) in a total amount of 0.1 mL (0.05 mL per side). Further, on the day of inoculation of the MOG 35-55 administration solution, and two days thereafter, 200 μL of pertussis toxin (Sigma) whose concentration was adjusted to 1 μg/mL was intraperitoneally administered to each mouse. As a test compound, Compound 3 was used. […] Fourteen days after inoculation of the MOG 35-55 administration solution, the neurological symptom score was scored (0: normal, 1: limp tail or hind limb weakness, 2: limp tail and hind limb weakness, 3: partial hind limb paralysis, 4: complete hind limb paralysis, 5: moribund state). […]

The subject of experiment [3] is PLP-induced mouse experimental autoimmune encephalomyelitis model. In words: PLP-induced mouse experimental autoimmune encephalomyelitis model. It is filed as in vivo. As to conditions: SJL mouse, PLP 139-151; 10 mg/kg orally twice daily for 7 days from two days after inoculation; scored 9 days after inoculation. The procedure: Action of the cyclohexane derivative (I) or the pharmaceutically acceptable salt thereof against an increase in the neurological symptom score in a PLP-induced mouse experimental autoimmune encephalomyelitis model was evaluated. The mouse experimental autoimmune encephalomyelitis model was prepared according to the method described in International Immunology, 1997, Vol. 9, pp. 1243-1251 with partial modification. A PLP 139-151 administration solution, which was prepared by mixing equal volumes of a PBS solution containing a partially synthesized peptide of PLP (PLP 139-151; Kokusan Chemical Co., Ltd.) whose concentration was adjusted to 2 mg/mL and Freund's complete adjuvant, was intracutaneously inoculated to both lateral regions of each SJL mouse (female, 6-weeks old) (Charles River Laboratories Japan) in a total amount of 0.1 mL (0.05 mL per side). Further, on the day of inoculation of the PLP 139-151 administration solution, and two days thereafter, 200 μL of pertussis toxin (Sigma) whose concentration was adjusted to 1 μg/mL was intraperitoneally administered to each mouse. […] Nine days after inoculation of the PLP 139-151 administration solution, the neurological symptom score was scored (0: normal, 1: limp tail or hind limb weakness, 2: limp tail and hind limb weakness, 3: partial hind limb paralysis, 4: complete hind limb paralysis, 5: moribund state). […]

For experiment [4], the target named is T1, thrombin (Homo sapiens, UniProt P00734).
T1 construct: purchased Anaspec Inc
In words: Thrombin activity assay (SensoLyte 520 kit, FRET). It is filed as biochemical. As to conditions: at the maximum concentration, 30 μmol/L; read-out: thrombin activity inhibition rate.
Protocol: The action of the cyclohexane derivative (I) or the pharmaceutically acceptable salt thereof on the thrombin activity was evaluated using a SensoLyte (registered trademark) 520 thrombin activity assay kit manufactured by Anaspec Inc., which utilizes fluorescence resonance energy transfer (FRET).
The test compound was dissolved in dimethylsulfoxide (hereinafter referred to as DMSO), and diluted with the assay buffer included in the kit to a final DMSO concentration of 0.5 to 1%. […] Thereafter, the fluorescence value was measured by excitation at 485 nm and detection at 520 nm.
The thrombin activity inhibition rate (%) was calculated according to Equation 1, and regression analysis was carried out to obtain a sigmoid curve (variable slope), thereby calculating the IC50 value of the thrombin activity inhibition by the test compound: Thrombin activity inhibition rate (%)=(1−((fluorescence value in the presence of both thrombin and the test compound)−(fluorescence value in the absence of both thrombin and the test compound))/((fluorescence value in the presence of thrombin and absence of the test compound)−(fluorescence value in the absence of both thrombin and the test compound)))×100 Equation 1.

Turning to `COc1ccc(-n2nc(C3(O)CCC(O)CC3)cc2-c2ccccc2C)cc1` (stereo not shown) [Comparative Control Compound 2], the “rate of suppression of exacerbation of neurological symptoms” value (from here on “rate … of neurological symptoms”) in experiment [1] was 6.5%.
For the molecule `COc1ccc(-n2nc(C3(O)CCC(O)CC3)cc2-c2ccc(C)cc2)cc1` (stereo not drawn) [Compound 3, 1-(1-(4-methoxyphenyl)-5-(p-tolyl)-1H-pyrazol-3-yl)cyclohexane-cis-1,4-diol], the “rate … of neurological symptoms” value was 85.7% in experiment [1], 53.8% in experiment [2] (3 mg/kg orally twice daily for 12 days from two days after inoculation), 61.5% in experiment [2] (10 mg/kg orally twice daily for 12 days from two days after inoculation) and 66.4% in experiment [3]. In experiment [4], the inhibition at 30 µM was 17.2%.
On to `COc1ccc(-n2nc(C3(O)CCNCC3)cc2-c2ccc(C)cc2)cc1` [Comparative Control Compound 1], for which the “rate … of neurological symptoms” value in experiment [1] is 3.3%.
